Experimental data reported in patent US20230364057A1, “BACTERIAL DNA GYRASE INHIBITORS AND METHODS OF USE THEREOF” (THE FLORIDA INTERNATIONAL UNIVERSITY BOARD OF TRUSTEES, priority 2022, published 2023).
Values after ≈ are worked out from the molar mass of the structure shown. Values joined by “and” are separate entries in the source; they are usually repeats but may differ in a detail not shown here. Equal values may be shown once. Read-outs that look alike come from different tables or passages of the source.

Columns and labels:
M. abscessus = test: MIC against M. abscessus; assay type: cell-based, Mycobacterium abscessus; conditions: Mycobacteroides abscessus
S. aureus (ATCC 14775) = test: Minimum inhibitory concentration, broth microdilution; conditions: Staphylococcus aureus
Description: (§2) Antibacterial minimum inhibitory concentrations (MICs) were obtained from three independent experiments using broth microdilution methods in 96-well plates according to Clinical and Laboratory Standards Institute guidelines. Cells were culture from singles colonies in MHIIB medium for 24 h at 37° C. in agitation (200 RPM). The cultures were then diluted using the same media to reach an OD600 of 0.1. Then, 50 µL of the diluted cultures were added to the plates holding 50 µL of serially diluted compounds in MHIIB. The plates were incubated at 37° C. for 20 h. The starting inoculum was fixated to 10^5 colony-forming units per ml.

in vitro = conditions: human
Mtb = Mtb whole cell assay (% inhibition, MIC); assay type: cell-based, Mycobacterium tuberculosis; conditions: Mycobacterium tuberculosis
Mtb DNA gyrase = Mtb DNA gyrase (Mycobacterium tuberculosis (strain ATCC 25618 / H37Rv), UniProt P9WG45+P9WG47); test: Mtb DNA gyrase inhibition assay (gel-based); assay type: biochemical; conditions: Table 10; read-out: IC50 (µM) Mtb gyrase
Description: The IC50 against E. coli (A) and Mtb (C) gyrase were determined using the gel-based gyrase inhibition assays. The gyrase mediated DNA cleavage assays (B and D) were performed using pBR322. (A) 229 inhibits E. coli gyrase. Lane 1, rx pAB1. […] Lane 1, rx pAB1. […] 100 µM of CPDs were used. Symbols rx, nk, In, and sc represent relaxed, nicked, linear, and supercoiled DNA, respectively.
Agarose gel-based DNA gyrase inhibition assays were performed in 30 µL of 1 ×gyrase buffer (35 mM Tris-HCl, 24 mM KCl, 4 mM MgCl2, 2 mM DTT, 1.75 mM ATP, 0.1 mg/mL BSA, 6.5% glycerol, pH7.5) containing 400 ng of rx pAB1 at 37° C. 100 ng of DNA gyrase was used to supercoil the rx pAB1 in the presence of different concentrations of a gyrase inhibitor. After 15 minutes of incubation with the inhibitor at 37° C., all reactions were stopped with 1 µL of stop solution (3% SDS and 250 mM EDTA). Samples were analyzed by electrophoresis in 1% w/v agarose gels followed by ethidium bromide staining and photographed under UV light.

MRSA = test: Minimum inhibitory concentration, broth microdilution; conditions: Staphylococcus aureus
E. coli imp = test: microbe, parasite or virus in culture; conditions: Escherichia coli, read-out: MIC E. coli imp BAS3023
Description: as §2

B. subtilis (ATCC 6633) = test: Minimum inhibitory concentration, broth microdilution; conditions: Bacillus subtilis, ATCC6633, read-out: MIC B. subtilis ATCC 6633
E. coli DNA gyrase [1] = biological target: T1, E. coli DNA gyrase (Escherichia coli (strain K12), UniProt P0AES4+P0AES6); test: Agarose gel-based DNA gyrase inhibition assay; assay type: biochemical; conditions: for IC50: Table 8, read-out: IC50 Gyrase Gel-based
Description: 100 ng of DNA gyrase was used to supercoil the rx pAB1 in the presence of different concentrations of a gyrase inhibitor. […] Samples were analyzed by electrophoresis in 1% w/v agarose gels followed by ethidium bromide staining and photographed under UV light.

E. coli DNA gyrase [2] = biological target: T1, E. coli DNA gyrase; test: SDFQ-based DNA gyrase inhibition assay; assay type: biochemical; conditions: Table 8; read-out: IC50 Gyrase SDFQ
Description: 100 ng of DNA gyrase was used to supercoil the rx pAB1_FL905 in the presence of different concentrations of a gyrase inhibitor. […] The IC50 values were estimated by nonlinear fitting of the following equation: […]
where F is the fluorescence intensity at the x concentration of an min inhibitor. Fmax and Fmin are the maximum and minimum fluorescence of the DNA sample, respectively. P is a slope parameter.

[3] = biological target: T2, E. coli DNA topoisomerase IV (Escherichia coli (strain K12), UniProt P0AFI2+P20083); test: E. coli DNA topoisomerase IV relaxation assay (gel-based); assay type: biochemical; conditions: for IC50: IC50 Topoisomerase IV Gel-based, Table 8
T2 sequence (P0AFI2 whole entry, looked up): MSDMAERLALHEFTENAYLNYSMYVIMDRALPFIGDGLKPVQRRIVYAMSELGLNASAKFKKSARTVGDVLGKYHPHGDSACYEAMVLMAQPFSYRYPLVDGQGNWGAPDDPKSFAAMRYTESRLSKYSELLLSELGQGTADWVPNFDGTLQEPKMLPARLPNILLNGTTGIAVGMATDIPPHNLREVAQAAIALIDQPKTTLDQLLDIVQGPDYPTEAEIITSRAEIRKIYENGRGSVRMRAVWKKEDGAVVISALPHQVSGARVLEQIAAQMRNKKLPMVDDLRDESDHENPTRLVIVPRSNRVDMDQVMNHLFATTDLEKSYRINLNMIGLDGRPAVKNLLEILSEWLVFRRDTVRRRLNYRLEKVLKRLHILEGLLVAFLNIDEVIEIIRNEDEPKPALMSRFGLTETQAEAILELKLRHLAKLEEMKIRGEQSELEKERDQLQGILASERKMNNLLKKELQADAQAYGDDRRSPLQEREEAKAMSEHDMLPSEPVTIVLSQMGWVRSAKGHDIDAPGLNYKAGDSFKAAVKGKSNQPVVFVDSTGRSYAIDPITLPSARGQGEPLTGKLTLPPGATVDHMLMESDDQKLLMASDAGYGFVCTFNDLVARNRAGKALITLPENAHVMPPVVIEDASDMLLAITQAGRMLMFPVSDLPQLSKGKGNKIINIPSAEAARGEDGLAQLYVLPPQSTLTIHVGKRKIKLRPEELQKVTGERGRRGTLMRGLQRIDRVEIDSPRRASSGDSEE
T2 sequence (P20083 whole entry, looked up): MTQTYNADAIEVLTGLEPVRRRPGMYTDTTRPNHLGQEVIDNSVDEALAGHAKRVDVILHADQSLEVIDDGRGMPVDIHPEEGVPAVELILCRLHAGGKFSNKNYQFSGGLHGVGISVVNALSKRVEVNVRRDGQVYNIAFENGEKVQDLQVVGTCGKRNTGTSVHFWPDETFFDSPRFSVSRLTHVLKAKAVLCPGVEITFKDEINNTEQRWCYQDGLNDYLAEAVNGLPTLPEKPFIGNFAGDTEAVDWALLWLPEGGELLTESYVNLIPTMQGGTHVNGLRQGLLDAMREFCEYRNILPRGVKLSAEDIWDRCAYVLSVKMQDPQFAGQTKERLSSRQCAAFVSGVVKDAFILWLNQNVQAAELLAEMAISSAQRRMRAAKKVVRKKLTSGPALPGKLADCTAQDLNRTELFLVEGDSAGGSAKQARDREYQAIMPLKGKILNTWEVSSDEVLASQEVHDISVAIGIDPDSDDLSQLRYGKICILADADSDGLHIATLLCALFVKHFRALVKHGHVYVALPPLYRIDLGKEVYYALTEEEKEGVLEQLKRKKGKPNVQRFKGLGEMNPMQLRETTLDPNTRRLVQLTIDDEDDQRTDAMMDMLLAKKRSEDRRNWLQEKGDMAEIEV
Description: (§1) Relaxation assays by E. coli DNA topoisomerase IV and the ATPase assays were performed. […] Lane 1 is supercoiled plasmid pAB1. […] The supercoiled, fluorescently-labeled plasmid pAB1_FL905 was used.

E. coli (ATCC 25922) = test: Minimum inhibitory concentration, broth microdilution; conditions: Escherichia coli
Description: as §2

[4] = biological target: T2, E. coli DNA topoisomerase IV; test: SDFQ-based DNA relaxation assay with E. coli DNA topoisomerase IV; assay type: biochemical
Description: as §1

E. coli DNA gyrase [5] = biological target: T1, E. coli DNA gyrase; test: biochemical; assay type: biochemical; conditions: bin of Table 2
E. coli DNA gyrase [6] = biological target: T1, E. coli DNA gyrase; test: DNA gyrase mediated DNA cleavage assay; assay type: biochemical; conditions: pBR322
Description: 250 ng of supercoiled pBR322 plasmid were incubated with 50 nM of E. coli DNA gyrase in reactions containing 35 mM Tris-HCl, 24 mM KCl, 4 mM MgCl2, 2 mM DTT, 0.1 mg/mL BSA, 6.5% glycerol, and 1.75 mM ATP, in presence of 200 µM of compounds, at 37° C. for 15 min. Then, 0.2% (w/v) of SDS and 0.1 mg/mL proteinase K were added, and samples were incubated at 37° C. for 1 h. […] Samples were examined by electrophoresis in 1% w/v agarose gel containing 0.5 µg/mL ethidium bromide and photographed under UV light.

[7] = ATCC14775, read-out: MIC (µM) Sa
[8] = ATCC33591 / MRSA, read-out: MIC MRSA ATCC 33591
[9] = ATCC14775, read-out: MIC S. aureus ATCC 14775
[10] = ATCC25922, read-out: MIC E coli ATCC 25922, Table 9

Compound | MIC (M. abscessus) [µM] | MIC (S. aureus (ATCC 14775); [7]) [µM] | IC50 (in vitro) [µM] | MIC (Mtb) [µM] | IC50 (Mtb DNA gyrase) [µM] | MIC (MRSA; [8]) [µM] | MIC (S. aureus (ATCC 14775); [9]) | MIC (E. coli imp) [µM] | MIC (B. subtilis (ATCC 6633)) | IC50 (E. coli DNA gyrase [1]) [µM] | IC50 (E. coli DNA gyrase [2]) [µM] | IC50 [3] [µM] | MIC (E. coli (ATCC 25922); [10]) [µM] | IC50 [4] [µM] | inhibition of E. coli DNA gyrase activities (E. coli DNA gyrase [1]; 50 µM of compounds) | E. coli DNA gyrase-mediated DNA breaks and nicking (E. coli DNA gyrase [6]) | other results
C[n+]1c(-c2ccc(/C=N/NC(=O)c3ccc(C(=O)N/N=C/c4ccc(-c5cn6ccccc6[n+]5C)cc4)nc3)cc2)cn2ccccc21 [Compound 264] | 13.5 | 100 | > 200 | 6.2 | 2.1 |  |  |  |  |  |  |  |  |  |  |  | 
O=C(Oc1ccccc1)c1cc(O)c(O)c(O)c1 [Phenyl gallate, phenyl gallate] |  |  |  |  |  | 200 | 64 µg/mL and 200 µM | > 200 | > 64 µg/mL and > 200 µM | > 100 | > 100 | > 100 | > 200 | > 100 |  |  | MIC (MRSA; ATCCBAA44 / MRSA, read-out: MIC S. aureus (MRSA) ATCC BAA44): 64 µg/mL
O=C(O)CCNc1ccc(NCCC(=O)O)c2c1C(=O)c1ccccc1C2=O [Compound 173, 3-({4-[(2-carboxyethyl)amino]-9,10-dioxo-9,10-dihydroanthracen-1-yl}amino)propanoic acid] |  |  |  |  |  |  |  |  |  |  |  |  |  |  | completely inhibited | cause DNA nicking | MIC (MRSA; MRSA, read-out: Minimum Inhibitory Concentration S.aureus MRSA): 100 µM; IC50 (E. coli DNA gyrase [5]; IC50 (15-[…] µM)): 15 to 25 µM
CCCCCCCCCCCCOC(=O)c1cc(O)c(O)c(O)c1 [Dodecyl gallate, dodecyl gallate] |  |  |  |  |  | 200 | 67.7 µg/mL and 200 µM | 200 (≈ 67.7 µg/mL) | 8 µg/mL and 25 µM to 50 µM | 15 | 13.8 | 50 | > 200 | 36.9 |  |  | inhibition of E. coli DNA topoisomerase IV [3]: strongly inhibit
CCCCSc1ccn2cc(-c3ccc(/C=N/NC(=O)c4ccc(C(=O)N/N=C/c5ccc(-c6cn7ccc(SCCCC)cc7[n+]6C)cc5)cc4)cc3)[n+](C)c2c1 [Compound 262] | > 200 | > 200 | > 200 | 122 | 118 |  |  |  |  |  |  |  |  |  |  |  | MIC (E. coli (ATCC 25922); ATCC25922, read-out: MIC (µM) Ec, E. coli strain ATCC25922): > 200 µM
O=C1C=C(NCCc2cc(Br)c(O)c(Br)c2)C(=O)c2ncccc21 [Compound 232, 7-((2-(3,5-Dibromo-4-hydroxyphenyl)ethyl)amino)-5,8-quinolinedione] |  |  |  |  |  |  |  |  |  |  |  |  |  |  | inhibited | cause DNA nicking | IC50 (E. coli DNA gyrase [5]; IC50 (50-200 µM)): 50 to 200 µM; inhibition of E. coli DNA gyrase activities (E. coli DNA gyrase [1]; 200 µM of compounds): completely inhibited
